Data taken from patent US10420341B2, “Herbicidal phenylpyrimidines” (BASF SE, priority 2015, dated 2019).

How the values were obtained:
[1] = test system: APESV; assay: greenhouse pre-emergence herbicidal test; format: in vivo, Apera spica-venti; settings: pre-emergence method, scale from 0 to 100
Summary of the method: (§1)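 Species-dependent temperatures of 10-25° C. or 20-35° C. were maintained for a 2 to 4 week test after pre-emergence nozzle application of compounds dispersed in water. Efficacy was scored 0-100, with 100 denoting no emergence or total aerial destruction.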

[2] = test system: ECHCG; assay: greenhouse pre-emergence herbicidal test; format: in vivo, Echinocloa crus-galli; settings: pre-emergence method, scale from 0 to 100
Summary of the method: as §1

[3] = test system: ECHCG; assay: greenhouse post-emergence herbicidal test; format: in vivo, Echinocloa crus-galli; settings: post-emergence method, scale from 0 to 100
Summary of the method: (§2)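 Plants grown to 3 to 15 cm, then sprayed with active ingredient suspended or emulsified in water; kept at 10-25° C. or 20-35° C. by species. Damage scored after 2 to 4 weeks on a 0 to 100 scale, 100 meaning no emergence or complete aerial destruction, 0 normal growth.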

[4] = test system: POLCO; assay: greenhouse post-emergence herbicidal test; format: in vivo, Polygonum convolvulus; settings: post-emergence method, application rate 500 g/ha, scale from 0 to 100
Description: (§3) The seeds of the test plants were sown separately for each species. For the post-emergence treatment, the test plants were first grown to a height of 3 to 15 cm, depending on the plant habit, and only then treated with the active ingredients which had been suspended or emulsified in water. For this purpose, the test plants were either sown directly and grown in the same containers, or they were first grown separately as seedlings and transplanted into the test containers a few days prior to treatment. Depending on the species, the plants were kept at 10-25° C. or 20-35° C., respectively. The test period extended over 2 to 4 weeks. During this time, the plants were tended, and their response to the individual treatments was evaluated. Evaluation was carried out using a scale from 0 to 100. 100 means no emergence of the plants, or complete destruction of at least the aerial moieties, and 0 means no damage, or normal course of growth. […] The plants used in the greenhouse experiments were of the following species: [table]

[5] = test system: AMARE; assay: greenhouse post-emergence herbicidal test; format: in vivo, Amaranthus retroflexus; settings: post-emergence method, scale from 0 to 100
Description: as §3

[6] = test system: ALOMY; assay: greenhouse post-emergence herbicidal test; format: in vivo, Alopercurus myosuroides; settings: post-emergence method, application rate 1000 g/ha, scale from 0 to 100
Summary of the method: as §2

## Cc1ccccc1-c1cnc(C(C)C)nc1C(=O)O [example 33]
[1]; application rate 500 g/ha
  herbicidal activity against APESV: very good (a very good herbicidal activity is given at values of at least 85)
[2]; application rate 500 g/ha
  herbicidal activity against ECHCG: very good (a very good herbicidal activity is given at values of at least 85)
[3]; application rate 500 g/ha
  herbicidal activity against ECHCG: good (A good herbicidal activity is given at values of at least 70)
[4]
  herbicidal activity against POLCO: good (A good herbicidal activity is given at values of at least 70)

## CCOc1ncc(-c2ccccc2C)c(C(=O)O)n1 [example 67]
[1]; application rate 500 g/ha
  herbicidal activity against APESV: very good (a very good herbicidal activity is given at values of at least 85)
[2]; application rate 500 g/ha
  herbicidal activity against ECHCG: good (A good herbicidal activity is given at values of at least 70)
[3]; application rate 500 g/ha
  herbicidal activity against ECHCG: good (A good herbicidal activity is given at values of at least 70)
[4]
  herbicidal activity against POLCO: very good (a very good herbicidal activity is given at values of at least 85)

## CCOc1ncc(-c2cc(C)ccc2C)c(C(=O)O)n1 [example 68]
[1]; application rate 500 g/ha
  herbicidal activity against APESV: very good (a very good herbicidal activity is given at values of at least 85)
[2]; application rate 500 g/ha
  herbicidal activity against ECHCG: very good (a very good herbicidal activity is given at values of at least 85)
[3]; application rate 500 g/ha
  herbicidal activity against ECHCG: good (A good herbicidal activity is given at values of at least 70)
[4]
  herbicidal activity against POLCO: very good (a very good herbicidal activity is given at values of at least 85)

## Cc1ccccc1-c1cnc(OC(C)C)nc1C(=O)O [example 72]
[5]; application rate 500 g/ha
  herbicidal activity against AMARE: very good (a very good herbicidal activity is given at values of at least 85)
[3]; application rate 500 g/ha
  herbicidal activity against ECHCG: very good (a very good herbicidal activity is given at values of at least 85)

## CSc1ncc(-c2cc(C)ccc2C)c(C(=O)O)n1 [example 92]
[1]; application rate 2000 g/ha
  herbicidal activity against APESV: good (A good herbicidal activity is given at values of at least 70)
[2]; application rate 2000 g/ha
  herbicidal activity against ECHCG: very good (a very good herbicidal activity is given at values of at least 85)
[5]; application rate 2000 g/ha
  herbicidal activity against AMARE: very good (a very good herbicidal activity is given at values of at least 85)
[3]; application rate 2000 g/ha
  herbicidal activity against ECHCG: good (A good herbicidal activity is given at values of at least 70)

## CSc1ncc(-c2ccc(C)cc2C)c(C(=O)O)n1 [example 97]
[5]; application rate 2000 g/ha
  herbicidal activity against AMARE: very good (a very good herbicidal activity is given at values of at least 85)
[3]; application rate 2000 g/ha
  herbicidal activity against ECHCG: good (A good herbicidal activity is given at values of at least 70)

## CSc1ncc(-c2ccccc2C(C)C)c(C(=O)O)n1 [example 103]
[2]; application rate 2000 g/ha
  herbicidal activity against ECHCG: good (A good herbicidal activity is given at values of at least 70)
[5]; application rate 2000 g/ha
  herbicidal activity against AMARE: very good (a very good herbicidal activity is given at values of at least 85)
[3]; application rate 2000 g/ha
  herbicidal activity against ECHCG: very good (a very good herbicidal activity is given at values of at least 85)

## COc1ccc(OC)c(-c2cnc(SC)nc2C(=O)O)c1 [example 108]
[2]; application rate 2000 g/ha
  herbicidal activity against ECHCG: very good (a very good herbicidal activity is given at values of at least 85)
[5]; application rate 2000 g/ha
  herbicidal activity against AMARE: very good (a very good herbicidal activity is given at values of at least 85)

## CCSc1ccccc1-c1cnc(SC)nc1C(=O)O [example 113]
[5]; application rate 2000 g/ha
  herbicidal activity against AMARE: very good (a very good herbicidal activity is given at values of at least 85)

## Cc1ccccc1-c1cnc([S+](C)[O-])nc1C(=O)O (stereo not drawn) [example 126]
[5]; application rate 2000 g/ha
  herbicidal activity against AMARE: very good (a very good herbicidal activity is given at values of at least 85)

## O=C(O)c1nc(C2CC2)ncc1-c1cc(Cl)ccc1Cl [example 143]
[1]; application rate 500 g/ha
  herbicidal activity against APESV: very good (a very good herbicidal activity is given at values of at least 85)
[2]; application rate 500 g/ha
  herbicidal activity against ECHCG: very good (a very good herbicidal activity is given at values of at least 85)
[3]; application rate 500 g/ha
  herbicidal activity against ECHCG: good (A good herbicidal activity is given at values of at least 70)
[4]
  herbicidal activity against POLCO: very good (a very good herbicidal activity is given at values of at least 85)

## Cc1cc(-c2cnc(C3CC3)nc2C(=O)O)c(C)cc1F [example 167]
[1]; application rate 100 g/ha
  herbicidal activity against APESV: very good (a very good herbicidal activity is given at values of at least 85)
[2]; application rate 100 g/ha
  herbicidal activity against ECHCG: very good (a very good herbicidal activity is given at values of at least 85)
[5]; application rate 100 g/ha
  herbicidal activity against AMARE: good (A good herbicidal activity is given at values of at least 70)
[3]; application rate 100 g/ha
  herbicidal activity against ECHCG: very good (a very good herbicidal activity is given at values of at least 85)

## CCc1ccccc1-c1cnc(C2CC2)nc1C(=O)O [example 174]
[1]; application rate 500 g/ha
  herbicidal activity against APESV: very good (a very good herbicidal activity is given at values of at least 85)
[2]; application rate 500 g/ha
  herbicidal activity against ECHCG: very good (a very good herbicidal activity is given at values of at least 85)
[5]; application rate 500 g/ha
  herbicidal activity against AMARE: very good (a very good herbicidal activity is given at values of at least 85)
[3]; application rate 500 g/ha
  herbicidal activity against ECHCG: very good (a very good herbicidal activity is given at values of at least 85)

## COC(=O)c1nc(C2CC2)ncc1-c1cccc(Cl)c1Cl [example 211]
[6]
  herbicidal activity against ALOMY: very good (a very good herbicidal activity is given at values of at least 85)
[5]; application rate 1000 g/ha
  herbicidal activity against AMARE: very good (a very good herbicidal activity is given at values of at least 85)

## COC(=O)c1nc(C2CC2)ncc1-c1c(Br)ccc(OC)c1Cl [example 212]
[5]; application rate 500 g/ha
  herbicidal activity against AMARE: very good (a very good herbicidal activity is given at values of at least 85)
[3]; application rate 500 g/ha
  herbicidal activity against ECHCG: very good (a very good herbicidal activity is given at values of at least 85)

## CCc1ccccc1-c1cnc(C2CC2)nc1C(=O)OC [example 237]
[2]; application rate 1000 g/ha
  herbicidal activity against ECHCG: very good (a very good herbicidal activity is given at values of at least 85)
[5]; application rate 1000 g/ha
  herbicidal activity against AMARE: very good (a very good herbicidal activity is given at values of at least 85)
[3]; application rate 1000 g/ha
  herbicidal activity against ECHCG: very good (a very good herbicidal activity is given at values of at least 85)

## COC(=O)c1nc(C2CC2)ncc1-c1ccccc1OC(F)F [example 242]
[2]; application rate 500 g/ha
  herbicidal activity against ECHCG: very good (a very good herbicidal activity is given at values of at least 85)
[5]; application rate 500 g/ha
  herbicidal activity against AMARE: very good (a very good herbicidal activity is given at values of at least 85)
[3]; application rate 500 g/ha
  herbicidal activity against ECHCG: good (A good herbicidal activity is given at values of at least 70)

## COC(=O)CSC(=O)c1nc(C2CC2)ncc1-c1ccccc1Cl [example 278]
[1]; application rate 500 g/ha
  herbicidal activity against APESV: very good (a very good herbicidal activity is given at values of at least 85)
[2]; application rate 500 g/ha
  herbicidal activity against ECHCG: very good (a very good herbicidal activity is given at values of at least 85)
[4]
  herbicidal activity against POLCO: very good (a very good herbicidal activity is given at values of at least 85)

## O=C(SCc1ccccc1)c1nc(C2CC2)ncc1-c1ccccc1Cl [example 280]
[1]; application rate 500 g/ha
  herbicidal activity against APESV: very good (a very good herbicidal activity is given at values of at least 85)
[5]; application rate 500 g/ha
  herbicidal activity against AMARE: very good (a very good herbicidal activity is given at values of at least 85)

## C=Cc1ncc(-c2ccccc2Cl)c(C(=O)OC)n1 [example 292]
[5]; application rate 1000 g/ha
  herbicidal activity against AMARE: very good (a very good herbicidal activity is given at values of at least 85)

## COC(=O)c1nc(C2CC2(F)F)ncc1-c1ccccc1Cl (stereo not drawn) [example 293]
[5]; application rate 1000 g/ha
  herbicidal activity against AMARE: good (A good herbicidal activity is given at values of at least 70)

## COC(=O)c1nc(C2CC2)ncc1-c1ccc(OC)cc1F [example 295]
[5]; application rate 500 g/ha
  herbicidal activity against AMARE: good (A good herbicidal activity is given at values of at least 70)
